According to article PMC6681697, “One-Step ^18F-Labeling and Preclinical Evaluation of Prostate-Specific Membrane Antigen Trifluoroborate Probes for Cancer Imaging” (Journal of Nuclear Medicine, 2019):
Each block holds one compound with its values, some of them ahead of it.

Tests used:
PSMA = biological target: T1, PSMA (Homo sapiens, UniProt Q04609); assay: In vitro competition binding assay on LNCaP cells with ^18F-DCFPyL as radioligand
T1 construct: because it expresses PSMA endogenously and is commonly used to evaluate PSMA-targeting radiotracers; endogenous in cells; host or cells: LNCaP cells
Procedure: LNCaP cells were plated onto a 24-well poly-D-lysine coated plate for 48 h (400,000/well). […] Nonspecific binding was determined in the presence of 10 μM unlabeled DCFPyL. The assay mixtures were incubated for 1 h at 37°C with gentle agitation followed by 2 washes with cold HEPES buffered saline. A trypsin solution (0.25%, 400 μL) was then added to each well to harvest the cells. Radioactivity was measured by γ-counting, and Ki values were calculated using the “1 site—fit Ki” built-in model in Prism 7 (GraphPad).

[1] = Distribution coefficient (LogD7.4), shake flask method; assay type: physicochemical; settings: n-octanol / phosphate buffer 0.1 M pH 7.4; n = 3
Procedure: LogD7.4 values were measured using the shake flask method. Briefly, an aliquot of ^18F-labeled tracer was added to a vial containing 2.5 mL of n-octanol and 2.5 mL of phosphate buffer (0.1 M, pH 7.4). The mixture was vortexed for 2 min and then centrifuged at 3,000g for 10 min. A sample of the n-octanol (0.1 mL) and buffer (0.1 mL) layers was counted using a γ-counter. Values of LogD7.4 were calculated using the following equation: LogD7.4 = log10 [(counts in n-octanol phase)/(counts in buffer phase)].

LNCaP xenografts = assay: Ex vivo biodistribution and blocking studies in mice bearing LNCaP xenografts; settings: for tumor uptake: LNCaP tumor
Procedure: Imaging and biodistribution experiments were performed using NODSCID IL2RγKO male mice. All experiments were conducted according to the guidelines established by the Canadian Council on Animal Care and approved by the Animal Ethics Committee of the University of British Columbia. Mice were anesthetized by inhalation with 2% isoflurane in oxygen and implanted subcutaneously with 1 × 10^7 LNCaP cells behind the left shoulder. The mice were imaged or used in biodistribution studies once the tumor reached 5–8 mm in diameter (5–6 wk).
For biodistribution and blocking studies, the mice were injected with 1–3 MBq of radiotracer. At 60 min, the mice were anesthetized with 2% isoflurane inhalation and euthanized by CO2 inhalation. Blood was withdrawn by cardiac puncture, and the organs and tissues of interest were collected, weighed, and counted using an automatic γ-counter (PerkinElmer). Uptake values were expressed as the percentage of the injected dose per gram of tissue (%ID/g).
A standard 1-way ANOVA was performed to determine whether statistically significant differences in tumor uptake occurred between radiotracers. Each radiotracer was compared with ^18F-DCFPyL using the Dunnett test (a many-to-one t test comparison). This analysis was also performed for kidney and blood activity and for tumor-to-blood and tumor-to-muscle ratios. Reported P values were adjusted for multiple comparisons. The analysis was performed using Prism 8 (GraphPad). […]
Statistical analyses were performed using GradPad prism 7. Multiple t tests were performed to compare biodistribution in unblocked and blocked mice, multiple comparisons were corrected using the Holm-Sidak method. The difference was considered statistically significant when p value was < 0.05.
Supplemental Table 1 – Complete biodistribution study for compounds [18F]1–3 […]
Tissue 1h 1h blocked 1h 1h blocked 1h 1h blocked
(%ID/g) n = 8 n = 4 n = 6 n = 4 n = 8 n = 5 […]
(1 picture or pasted object on this page, not shown here)

[2] = 1 h after injection, 1-way ANOVA, Dunnett test
[3] = 1 h blocked (coinjection of DCFPyL 0.5 mg)

T1 sequence (Q04609 whole entry): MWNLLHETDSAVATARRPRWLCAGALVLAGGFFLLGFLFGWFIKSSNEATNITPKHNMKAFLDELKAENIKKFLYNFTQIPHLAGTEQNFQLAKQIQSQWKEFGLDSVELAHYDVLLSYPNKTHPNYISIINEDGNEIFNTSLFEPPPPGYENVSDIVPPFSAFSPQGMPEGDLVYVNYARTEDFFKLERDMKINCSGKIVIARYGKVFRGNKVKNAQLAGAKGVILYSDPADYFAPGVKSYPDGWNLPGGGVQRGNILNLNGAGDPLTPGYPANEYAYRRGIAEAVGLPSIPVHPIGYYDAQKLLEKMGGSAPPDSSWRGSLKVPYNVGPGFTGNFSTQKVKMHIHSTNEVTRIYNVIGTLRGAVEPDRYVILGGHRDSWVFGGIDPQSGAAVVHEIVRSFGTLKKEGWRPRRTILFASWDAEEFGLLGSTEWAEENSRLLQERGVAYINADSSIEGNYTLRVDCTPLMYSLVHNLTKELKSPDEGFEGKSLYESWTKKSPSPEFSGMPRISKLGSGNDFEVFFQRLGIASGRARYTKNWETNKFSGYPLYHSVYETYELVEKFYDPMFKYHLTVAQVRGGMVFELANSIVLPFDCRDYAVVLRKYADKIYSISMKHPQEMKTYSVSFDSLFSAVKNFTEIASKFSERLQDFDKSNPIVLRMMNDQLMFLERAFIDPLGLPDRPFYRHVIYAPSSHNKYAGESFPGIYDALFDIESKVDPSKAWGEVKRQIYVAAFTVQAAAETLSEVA

Ki (PSMA): 25.9 ± 5.7 nM
logD at 2 min [1]: -4.01 ± 0.14
T/B (tumor-to-blood ratio) (LNCaP xenografts; 1 h after injection, unblocked): 9.68 ± 4.53
T/K (tumor-to-kidney ratio) (LNCaP xenografts; 1 h after injection, unblocked): 0.11 ± 0.08
T/M (tumor-to-muscle ratio) (LNCaP xenografts; 1 h after injection, unblocked): 29.00 ± 12.40
adrenal uptake (LNCaP xenografts; 1 h after injection, unblocked): 1.35 ± 0.52 %ID/g
blood uptake (LNCaP xenografts; 1 h after injection, unblocked): 0.50 ± 0.16 %ID/g
bone uptake (LNCaP xenografts; 1 h after injection, unblocked): 0.20 ± 0.06 %ID/g
brain uptake (LNCaP xenografts; 1 h after injection, unblocked): 0.03 ± 0.01 %ID/g
fat uptake (LNCaP xenografts; 1 h after injection, unblocked): 0.35 ± 0.15 %ID/g
heart uptake (LNCaP xenografts; 1 h after injection, unblocked): 0.19 ± 0.07 %ID/g
intestine uptake (LNCaP xenografts; 1 h after injection, unblocked): 0.28 ± 0.07 %ID/g
kidney uptake (LNCaP xenografts; 1 h after injection, unblocked): 51.80 ± 24.10 %ID/g
liver uptake (LNCaP xenografts; 1 h after injection, unblocked): 1.17 ± 0.28 %ID/g
lung uptake (LNCaP xenografts; 1 h after injection, unblocked): 0.66 ± 0.19 %ID/g
muscle uptake (LNCaP xenografts; 1 h after injection, unblocked): 0.17 ± 0.07 %ID/g
pancreas uptake (LNCaP xenografts; 1 h after injection, unblocked): 0.27 ± 0.13 %ID/g
spleen uptake (LNCaP xenografts; 1 h after injection, unblocked): 0.84 ± 0.52 %ID/g
stomach uptake (LNCaP xenografts; 1 h after injection, unblocked): 0.08 ± 0.04 %ID/g
testes uptake (LNCaP xenografts; 1 h after injection, unblocked): 0.30 ± 0.09 %ID/g
kidney accumulation compared with ^18F-DCFPyL (LNCaP xenografts; [2]): lower kidney accumulation
tumor uptake compared with ^18F-DCFPyL (LNCaP xenografts; [2]): lower tumor uptake than ^18F-DCFPyL
T/B (tumor-to-blood ratio) (LNCaP xenografts; [3]): 1.17 ± 0.70
T/K (tumor-to-kidney ratio) (LNCaP xenografts; [3]): 0.16 ± 0.05
T/M (tumor-to-muscle ratio) (LNCaP xenografts; [3]): 3.54 ± 1.43
adrenal uptake (LNCaP xenografts; [3]): 0.24 ± 0.07 %ID/g
blood uptake (LNCaP xenografts; [3]): 0.30 ± 0.10 %ID/g
bone uptake (LNCaP xenografts; [3]): 0.16 ± 0.06 %ID/g
brain uptake (LNCaP xenografts; [3]): 0.02 ± 0.00 %ID/g
fat uptake (LNCaP xenografts; [3]): 0.16 ± 0.10 %ID/g
heart uptake (LNCaP xenografts; [3]): 0.12 ± 0.06 %ID/g
intestine uptake (LNCaP xenografts; [3]): 0.23 ± 0.06 %ID/g
kidney uptake (LNCaP xenografts; [3]): 2.12 ± 0.73 %ID/g
liver uptake (LNCaP xenografts; [3]): 1.25 ± 0.17 %ID/g
lung uptake (LNCaP xenografts; [3]): 0.30 ± 0.11 %ID/g
muscle uptake (LNCaP xenografts; [3]): 0.09 ± 0.03 %ID/g
pancreas uptake (LNCaP xenografts; [3]): 0.08 ± 0.03 %ID/g
spleen uptake (LNCaP xenografts; [3]): 0.09 ± 0.05 %ID/g
stomach uptake (LNCaP xenografts; [3]): 0.06 ± 0.02 %ID/g
testes uptake (LNCaP xenografts; [3]): 0.10 ± 0.03 %ID/g
tumor uptake (LNCaP xenografts; 1 h after injection, unblocked, listed as 3): 4.4 ± 0.95 %ID/g
tumor uptake (LNCaP xenografts; 1 h after injection, unblocked, listed as [18F]3): 4.36 ± 0.95 %ID/g
tumor uptake (LNCaP xenografts; [3]): 0.35 ± 0.21 %ID/g
Structure (SMILES): C[N+](C)(Cc1cn(Cc2ccc(C(=O)NCCCC[C@H](NC(=O)N[C@@H](CCC(=O)O)C(=O)O)C(=O)O)cn2)nn1)C[B-](F)(F)F [^18F-3]

Structure (SMILES): O=C(O)CCC(NC(=O)NC(CCCCNC(=O)c1ccc([18F])nc1)C(=O)O)C(=O)O (stereo not drawn) [^18F-DCFPyL, 2-(3-{1-carboxy-5-[(6-[^18F]fluoro-pyridine-3-carbonyl)-amino]-pentyl}-ureido)-pentanedioic acid, reference compound]
logD at 2 min [1]: -3.12 ± 0.22
adrenal uptake (LNCaP xenografts; 1 h after injection, unblocked): 3.02 ± 2.14 %ID/g
blood uptake (LNCaP xenografts; 1 h after injection, unblocked): 0.60 ± 0.13 %ID/g
bone uptake (LNCaP xenografts; 1 h after injection, unblocked): 0.33 ± 0.07 %ID/g
brain uptake (LNCaP xenografts; 1 h after injection, unblocked): 0.03 ± 0.01 %ID/g
fat uptake (LNCaP xenografts; 1 h after injection, unblocked): 1.05 ± 0.64 %ID/g
heart uptake (LNCaP xenografts; 1 h after injection, unblocked): 0.35 ± 0.12 %ID/g
intestine uptake (LNCaP xenografts; 1 h after injection, unblocked): 0.33 ± 0.07 %ID/g
kidney uptake (LNCaP xenografts; 1 h after injection, unblocked): 123.76 ± 37.67 %ID/g
liver uptake (LNCaP xenografts; 1 h after injection, unblocked): 1.82 ± 0.24 %ID/g
lung uptake (LNCaP xenografts; 1 h after injection, unblocked): 1.62 ± 0.68 %ID/g
muscle uptake (LNCaP xenografts; 1 h after injection, unblocked): 0.29 ± 0.12 %ID/g
pancreas uptake (LNCaP xenografts; 1 h after injection, unblocked): 0.58 ± 0.32 %ID/g
spleen uptake (LNCaP xenografts; 1 h after injection, unblocked): 3.98 ± 2.35 %ID/g
stomach uptake (LNCaP xenografts; 1 h after injection, unblocked): 0.12 ± 0.03 %ID/g
testes uptake (LNCaP xenografts; 1 h after injection, unblocked): 0.57 ± 0.21 %ID/g
tumor uptake (LNCaP xenografts; 1 h after injection, unblocked): 11.64 ± 3.52 %ID/g
